Tested on: HCV genotype-1a variant with glutamine 30 changed to glutamate in the NS5A protein
Assay type: cell-based
Settings: test compound titrated with BMS-790052 fixed at 200 nM; genotype 1a Q30E replicon
In short: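 Synergy was assessed by combining several fixed amounts of an NS5A-targeting compound with a titration of the second compound of interest.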

CC(C)[C@H](NC(=O)COc1ccccc1)c1ncc(-c2ccc(-c3ccc(-c4cnc([C@@H](NC(=O)COc5ccccc5)C(C)C)[nH]4)cc3)cc2)[nH]1 [Compound S-35]
Fold-Synergistic 1a (Q30E): >100 fold

CC(C)[C@H](NC(=O)Cc1ccccc1)c1ncc(-c2ccc(-c3ccc(-c4cnc([C@@H](NC(=O)Cc5ccccc5)C(C)C)[nH]4)cc3)cc2)[nH]1 [Compound S-36]
Fold-Synergistic 1a (Q30E): >10 fold

CC(C)[C@H](NC(=O)Cc1ccccc1F)c1ncc(-c2ccc(-c3ccc(-c4cnc([C@@H](NC(=O)Cc5ccccc5F)C(C)C)[nH]4)cc3)cc2)[nH]1 [Compound S-37]
Fold-Synergistic 1a (Q30E): >100 fold

CC(C)[C@H](NC(=O)Cc1ccccc1Cl)c1ncc(-c2ccc(-c3ccc(-c4cnc([C@@H](NC(=O)Cc5ccccc5Cl)C(C)C)[nH]4)cc3)cc2)[nH]1 [Compound S-38]
Fold-Synergistic 1a (Q30E): >100 fold

Cc1ccccc1CC(=O)N[C@H](c1ncc(-c2ccc(-c3ccc(-c4cnc([C@@H](NC(=O)Cc5ccccc5C)C(C)C)[nH]4)cc3)cc2)[nH]1)C(C)C [Compound S-39]
Fold-Synergistic 1a (Q30E): >100 fold

COc1cccc(CC(=O)N[C@H](c2ncc(-c3ccc(-c4ccc(-c5cnc([C@@H](NC(=O)Cc6cccc(OC)c6)C(C)C)[nH]5)cc4)cc3)[nH]2)C(C)C)c1 [Compound S-40]
Fold-Synergistic 1a (Q30E): >100 fold

Cc1cccc(CC(=O)N[C@H](c2ncc(-c3ccc(-c4ccc(-c5cnc([C@@H](NC(=O)Cc6cccc(C)c6)C(C)C)[nH]5)cc4)cc3)[nH]2)C(C)C)c1 [Compound S-41]
Fold-Synergistic 1a (Q30E): >10 fold

Cc1ccc(CC(=O)N[C@H](c2ncc(-c3ccc(-c4ccc(-c5cnc([C@@H](NC(=O)Cc6ccc(C)cc6)C(C)C)[nH]5)cc4)cc3)[nH]2)C(C)C)cc1 [Compound S-42]
Fold-Synergistic 1a (Q30E): >100 fold

CC(C)[C@H](NC(=O)/C=C/c1ccccc1)c1ncc(-c2ccc(-c3ccc(-c4cnc([C@@H](NC(=O)/C=C/c5ccccc5)C(C)C)[nH]4)cc3)cc2)[nH]1 [Compound S-43]
Fold-Synergistic 1a (Q30E): >100 fold

C#CCCC(=O)N[C@H](c1ncc(-c2ccc(-c3ccc(-c4cnc([C@@H](NC(=O)CCC#C)C(C)C)[nH]4)cc3)cc2)[nH]1)C(C)C [Compound S-44]
Fold-Synergistic 1a (Q30E): >100 fold

CCCCC(=O)N[C@H](c1ncc(-c2ccc(-c3ccc(-c4cnc([C@@H](NC(=O)CCCC)C(C)C)[nH]4)cc3)cc2)[nH]1)C(C)C [Compound S-45]
Fold-Synergistic 1a (Q30E): >100 fold

CC(C)[C@H](NC(=O)c1ccccn1)c1ncc(-c2ccc(-c3ccc(-c4cnc([C@@H](NC(=O)c5ccccn5)C(C)C)[nH]4)cc3)cc2)[nH]1 [Compound S-46]
Fold-Synergistic 1a (Q30E): >10 fold

CC(C)[C@H](NC(=O)C(C)(C)c1ccccc1)c1ncc(-c2ccc(-c3ccc(-c4cnc([C@@H](NC(=O)C(C)(C)c5ccccc5)C(C)C)[nH]4)cc3)cc2)[nH]1 [Compound S-47]
Fold-Synergistic 1a (Q30E): >100 fold

Cc1cccc(C(=O)N[C@H](c2ncc(-c3ccc(-c4ccc(-c5cnc([C@@H](NC(=O)c6cccc(C)n6)C(C)C)[nH]5)cc4)cc3)[nH]2)C(C)C)n1 [Compound S-48]
Fold-Synergistic 1a (Q30E): >100 fold

CC(=O)N[C@H](c1ncc(-c2ccc(-c3ccc(-c4cnc([C@@H](NC(C)=O)C(C)C)[nH]4)cc3)cc2)[nH]1)C(C)C [Compound S-49]
Fold-Synergistic 1a (Q30E): >10 fold

CC(C)[C@H](NC(=O)CC1CC1)c1ncc(-c2ccc(-c3ccc(-c4cnc([C@@H](NC(=O)CC5CC5)C(C)C)[nH]4)cc3)cc2)[nH]1 [Compound S-50]
Fold-Synergistic 1a (Q30E): >10 fold

COCCC(=O)N[C@H](c1ncc(-c2ccc(-c3ccc(-c4cnc([C@@H](NC(=O)CCOC)C(C)C)[nH]4)cc3)cc2)[nH]1)C(C)C [Compound S-51]
Fold-Synergistic 1a (Q30E): >10 fold

COc1ncccc1C(=O)N[C@H](c1ncc(-c2ccc(-c3ccc(-c4cnc([C@@H](NC(=O)c5cccnc5OC)C(C)C)[nH]4)cc3)cc2)[nH]1)C(C)C [Compound S-52]
Fold-Synergistic 1a (Q30E): >100 fold

CC(C)[C@H](NC(=O)CC(F)(F)F)c1ncc(-c2ccc(-c3ccc(-c4cnc([C@@H](NC(=O)CC(F)(F)F)C(C)C)[nH]4)cc3)cc2)[nH]1 [Compound S-53]
Fold-Synergistic 1a (Q30E): >100 fold

CC(C)[C@H](NC(=O)C1(C#N)CC1)c1ncc(-c2ccc(-c3ccc(-c4cnc([C@@H](NC(=O)C5(C#N)CC5)C(C)C)[nH]4)cc3)cc2)[nH]1 [Compound S-54]
Fold-Synergistic 1a (Q30E): >100 fold

CC(C)[C@H](NC(=O)c1cccc2c1OCC2)c1ncc(-c2ccc(-c3ccc(-c4cnc([C@@H](NC(=O)c5cccc6c5OCC6)C(C)C)[nH]4)cc3)cc2)[nH]1 [Compound S-55]
Fold-Synergistic 1a (Q30E): >100 fold

CC(C)[C@H](NC(=O)CC1CCCCCC1)c1ncc(-c2ccc(-c3ccc(-c4cnc([C@@H](NC(=O)CC5CCCCCC5)C(C)C)[nH]4)cc3)cc2)[nH]1 [Compound S-56]
Fold-Synergistic 1a (Q30E): >100 fold

CC(C)[C@H](NC(=O)CCCc1ccccc1)c1ncc(-c2ccc(-c3ccc(-c4cnc([C@@H](NC(=O)CCCc5ccccc5)C(C)C)[nH]4)cc3)cc2)[nH]1 [Compound S-57]
Fold-Synergistic 1a (Q30E): >100 fold

CC(C)[C@H](NC(=O)CCCn1ccnc1)c1ncc(-c2ccc(-c3ccc(-c4cnc([C@@H](NC(=O)CCCn5ccnc5)C(C)C)[nH]4)cc3)cc2)[nH]1 [Compound S-58]
Fold-Synergistic 1a (Q30E): <10 fold

CC(C)[C@H](NC(=O)CCN1CCCC1=O)c1ncc(-c2ccc(-c3ccc(-c4cnc([C@@H](NC(=O)CCN5CCCC5=O)C(C)C)[nH]4)cc3)cc2)[nH]1 [Compound S-59]
Fold-Synergistic 1a (Q30E): <10 fold

CC(C)[C@H](NC(=O)Cc1cnccn1)c1ncc(-c2ccc(-c3ccc(-c4cnc([C@@H](NC(=O)Cc5cnccn5)C(C)C)[nH]4)cc3)cc2)[nH]1 [Compound S-60]
Fold-Synergistic 1a (Q30E): <10 fold

CC(C)[C@H](NC(=O)c1cncnc1)c1ncc(-c2ccc(-c3ccc(-c4cnc([C@@H](NC(=O)c5cncnc5)C(C)C)[nH]4)cc3)cc2)[nH]1 [Compound S-61]
Fold-Synergistic 1a (Q30E): >10 fold

CC(C)[C@H](NC(=O)CCN1CCOCC1)c1ncc(-c2ccc(-c3ccc(-c4cnc([C@@H](NC(=O)CCN5CCOCC5)C(C)C)[nH]4)cc3)cc2)[nH]1 [Compound S-62]
Fold-Synergistic 1a (Q30E): <10 fold

CC(C)[C@H](NC(=O)c1cc(F)ccc1F)c1ncc(-c2ccc(-c3ccc(-c4cnc([C@@H](NC(=O)c5cc(F)ccc5F)C(C)C)[nH]4)cc3)cc2)[nH]1 [Compound S-63]
Fold-Synergistic 1a (Q30E): >100 fold

CC(C)[C@H](NC(=O)c1c(F)cccc1F)c1ncc(-c2ccc(-c3ccc(-c4cnc([C@@H](NC(=O)c5c(F)cccc5F)C(C)C)[nH]4)cc3)cc2)[nH]1 [Compound S-64]
Fold-Synergistic 1a (Q30E): >100 fold

CC(C)[C@H](NC(=O)c1ccccc1Cl)c1ncc(-c2ccc(-c3ccc(-c4cnc([C@@H](NC(=O)c5ccccc5Cl)C(C)C)[nH]4)cc3)cc2)[nH]1 [Compound S-65]
Fold-Synergistic 1a (Q30E): >100 fold

CC(C)[C@H](NC(=O)c1cccc(Cl)c1Cl)c1ncc(-c2ccc(-c3ccc(-c4cnc([C@@H](NC(=O)c5cccc(Cl)c5Cl)C(C)C)[nH]4)cc3)cc2)[nH]1 [Compound S-66]
Fold-Synergistic 1a (Q30E): >100 fold

CC(C)[C@H](NC(=O)c1cc(Cl)ccc1Cl)c1ncc(-c2ccc(-c3ccc(-c4cnc([C@@H](NC(=O)c5cc(Cl)ccc5Cl)C(C)C)[nH]4)cc3)cc2)[nH]1 [Compound S-67]
Fold-Synergistic 1a (Q30E): >100 fold
